Data from ChEMBL document CHEMBL5230085, “Design, synthesis, and biological characterization of a new class of symmetrical polyamine-based small molecule CXCR4 antagonists” (Eur J Med Chem, 2020).
Calls of active or inactive are those of the source. No cut-off for these calls is given here.

How the values were obtained:
[1] = molecular target: T1, C-X-C chemokine receptor type 4 (Homo sapiens, UniProt P61073); test: Binding affinity to CXCR4 (unknown origin) expressed in CHO cells incubated for 40 mins by competitive binding assay method; assay type: cell-based
T1 sequence (P61073 whole entry): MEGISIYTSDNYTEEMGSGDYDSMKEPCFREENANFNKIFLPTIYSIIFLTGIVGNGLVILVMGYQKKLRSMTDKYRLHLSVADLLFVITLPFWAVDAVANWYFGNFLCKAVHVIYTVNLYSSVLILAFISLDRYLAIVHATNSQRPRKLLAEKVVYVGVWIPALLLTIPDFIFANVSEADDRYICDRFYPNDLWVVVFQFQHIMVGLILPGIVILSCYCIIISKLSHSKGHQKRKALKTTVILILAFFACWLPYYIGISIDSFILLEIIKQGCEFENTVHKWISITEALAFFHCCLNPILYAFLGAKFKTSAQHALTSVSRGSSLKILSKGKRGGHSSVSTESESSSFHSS

[2] = molecular target: T1, C-X-C chemokine receptor type 4; test: Antagonist activity at CXCR4 receptor in SDF-1alpha-stimulated human SUP-T1 cells incubated for 30 mins by calcium mobilization assay; assay type: cell-based
[3] = tested on: C-X-C chemokine receptor type 4 (Homo sapiens), P61073 [D193A]; test: Binding affinity to CXCR4 D193A mutant (unknown origin) assessed as reduction in potency; parameters: scale not given: the % may be the effect or the level left; settings: filed as antagonist
Chain of C-X-C chemokine receptor type 4 (Homo sapiens), P61073 [D193A] (P61073 whole entry D193A): as the sequence (P61073 whole entry) above, with D193A counted along it

[4] = tested on: C-X-C chemokine receptor type 4 (Homo sapiens), P61073 [E288D]; test: Binding affinity to CXCR4 E288D mutant (unknown origin) by competitive binding assay method; settings: filed as antagonist
Chain of C-X-C chemokine receptor type 4 (Homo sapiens), P61073 [E288D] (P61073 whole entry E288D): as the sequence (P61073 whole entry) above, with E288D counted along it

[5] = tested on: C-X-C chemokine receptor type 4 (Homo sapiens), P61073 [D262A]; test: Binding affinity to N-terminus CXCR4 D262A mutant (unknown origin)
Chain of C-X-C chemokine receptor type 4 (Homo sapiens), P61073 [D262A] (P61073 whole entry D262A): as the sequence (P61073 whole entry) above, with D262A counted along it

[6] = Antiviral activity against HIV1 NL4-3 infected in human CEM-GFP cells assessed as inhibition in viral growth measured after 5 days by 96-well plate assay method; assay type: functional, cell-based; settings: NL4-3, CEM-GFP, 120 h
[7] = tested on: C-X-C chemokine receptor type 4 (Homo sapiens), P61073 [H113A]; test: Binding affinity to N-terminus CXCR4 H113A mutant (unknown origin)
Chain of C-X-C chemokine receptor type 4 (Homo sapiens), P61073 [H113A] (P61073 whole entry H113A): as the sequence (P61073 whole entry) above, with H113A counted along it

[8] = tested on: CEM-GFP; test: Cytotoxicity against human CEM-GFP cells assessed as cell viability at 10 uM incubated for 5 days by Celltiter-blue assay method; assay type: functional, cell-based; settings: time 5.0 day
[9] = tested on: C-X-C chemokine receptor type 4 (Homo sapiens), P61073 [W195A]; test: Binding affinity to CXCR4 W195A mutant (unknown origin) assessed as reduction in potency; parameters: scale not given: the % may be the effect or the level left; settings: filed as antagonist
Chain of C-X-C chemokine receptor type 4 (Homo sapiens), P61073 [W195A] (P61073 whole entry W195A): as the sequence (P61073 whole entry) above, with W195A counted along it

[10] = tested on: C-X-C chemokine receptor type 4 (Homo sapiens), P61073 [E288D]; test: Binding affinity to CXCR4 E288D mutant (unknown origin) by 12G5 competitive binding assay
[11] = tested on: C-X-C chemokine receptor type 4 (Homo sapiens), P61073 [R30A]; test: Binding affinity to N-terminus CXCR4 R30A mutant (unknown origin)
Chain of C-X-C chemokine receptor type 4 (Homo sapiens), P61073 [R30A] (P61073 whole entry R30A): as the sequence (P61073 whole entry) above, with R30A counted along it

[12] = molecular target: T1, C-X-C chemokine receptor type 4; test: Binding affinity to CXCR4 (unknown origin); settings: filed as antagonist

IC50 [1] [nM]	Compound	further results
194	c1cc(CNCCCNC2CCCCC2)ncc1CNCCCNC1CCCCC1	
48	CN(C)c1cc(CNCCCNC2CCCCC2)ccc1CNCCCNC1CCCCC1	
67.5	c1cc(-c2ccc(CNCCCNC3CCCCC3)cc2)ccc1CNCCCNC1CCCCC1	
67.6	CNc1cc(CNCCCNC2CCCCC2)cc(CNCCCNC2CCCCC2)c1	
147	O=[N+]([O-])c1cc(CNCCCNC2CCCCC2)cc(CNCCCNC2CCCCC2)c1	
312	c1c(CNCCCNC2CCCCC2)cc(CNCCCNC2CCCCC2)cc1CNCCCNC1CCCCC1	
40.8	c1ccc2c(CNCCCNC3CCCCC3)ccc(CNCCCNC3CCCCC3)c2c1	
19.8	c1cc(CNCCCNC2CCCCC2)ccc1CNCCCNC1CCCCC1	IC50 [2]: 119 nM; Activity [3]: 10%; Activity [4]: 40%; Activity [5]: inactive; IC50 [6]: 1500 nM; Activity [7]: inactive; Activity [8]: Not toxic; Activity [9]: 10%; Activity [10]: 30%; Activity [11]: inactive; Activity [12]: 60%
> 10000	c1cc(CNC2CCCCC2)ccc1CNC1CCCCC1	
> 10000	c1ccc(CNCc2ccc(CNCc3ccccn3)cc2)nc1	
1700	O=C(NCCCNC1CCCCC1)c1ccc(C(=O)NCCCNC2CCCCC2)cc1	
119	CN(C)c1cc(CNCCCNC2CCCCC2)cc(CNCCCNC2CCCCC2)c1	
122	c1cc(CNCCCNC2CCCCC2)nc(CNCCCNC2CCCCC2)c1	
155	c1cc(CNCCCNC2CCCCC2)cc(CNCCCNC2CCCCC2)c1	
699	O=C(NCCCNC1CCCCC1)c1ccc(CNCCCNC2CCCCC2)cc1	
68.9	Nc1cc(CNCCCNC2CCCCC2)ccc1CNCCCNC1CCCCC1	
81.2	Nc1cc(CNCCCNC2CCCCC2)cc(CNCCCNC2CCCCC2)c1	
354	O=[N+]([O-])c1cc(CNCCCNC2CCCCC2)ccc1CNCCCNC1CCCCC1	
